{"source": "DBAASP", "experiment_in_all_cases": "≥ marks a high value that may be exact or a test limit, other limits are often not marked, values filed in µg/mL are converted to µM", "key": {"Escherichia coli AB94012": {"system": "Escherichia coli AB94012"}, "[1]": {"system": "Escherichia coli ATCC 25922"}, "[2]": {"system": "Pseudomonas aeruginosa ATCC 27853"}, "[3]": {"system": "Pseudomonas aeruginosa ATCC 9027"}, "[4]": {"system": "Staphylococcus aureus AB6538"}, "[5]": {"system": "Acinetobacter baumannii ATCC 19606"}, "[6]": {"system": "Bacillus anthracis Sterne 34F2"}, "Bacillus subtilis 168": {"system": "Bacillus subtilis 168"}, "[7]": {"system": "Escherichia coli DH5alpha"}, "[8]": {"system": "Haemophilus influenzae ATCC 49247"}, "[9]": {"system": "Klebsiella pneumoniae NCTC 9633"}, "[10]": {"system": "Mycobacterium tuberculosis H37Ra"}, "[11]": {"system": "Pseudomonas aeruginosa PAO1"}, "[12]": {"system": "Staphylococcus aureus NRS 72"}, "[13]": {"system": "Staphylococcus aureus USA 300"}, "Escherichia coli 078": {"system": "Escherichia coli 078"}, "Escherichia coli UB1005": {"system": "Escherichia coli UB1005"}, "[14]": {"system": "Lacticaseibacillus rhamnosus 7469"}, "[15]": {"system": "Salmonella enterica subsp. enterica serovar Pullorum ATCC 7913"}, "[16]": {"system": "Salmonella enterica subsp. enterica serovar Typhimurium ATCC 14028"}, "[17]": {"system": "Salmonella enterica subsp. enterica serovar Typhimurium C77-31"}, "[18]": {"system": "Staphylococcus aureus ATCC 25923"}, "[19]": {"system": "Staphylococcus aureus ATCC 29213"}, "[20]": {"system": "Staphylococcus epidermidis ATCC 12228"}, "[21]": {"system": "Streptococcus agalactiae CICC 10465"}, "Streptococcus agalactiae": {"system": "Streptococcus agalactiae"}, "[22]": {"system": "Streptococcus thermophilus YM-C"}, "[23]": {"system": "Acinetobacter baumannii 7226/16"}, "[24]": {"system": "Escherichia coli ESBL 521/17"}, "Escherichia coli ML-35p": {"system": "Escherichia coli ML-35p"}, "[25]": {"system": "Klebsiella pneumoniae ESBL 344/17"}, "[26]": {"system": "Pseudomonas aeruginosa 522/17"}, "[27]": {"system": "Staphylococcus aureus 1399/17"}, "[28]": {"system": "Staphylococcus aureus ATCC 33591"}, "[29]": {"system": "Staphylococcus aureus SG511"}, "[30]": {"system": "Bacillus subtilis KACC 10196"}, "[31]": {"system": "Candida albicans KACC 30071"}, "[32]": {"system": "Enterococcus faecalis KACC 11304"}, "[33]": {"system": "Escherichia coli KACC 1039"}, "[34]": {"system": "Klebsiella pneumoniae KCTC 2242"}, "[35]": {"system": "Pseudomonas aeruginosa KACC 10259"}, "[36]": {"system": "Staphylococcus aureus KACC 10196"}}, "data": [{"smiles": "CC[C@H](C)[C@H](NC(=O)[C@H](CCCCN)NC(=O)[C@@H]1CCCN1C(=O)[C@H](CC(C)C)NC(=O)[C@@H](NC(=O)[C@H](CCCCN)NC(=O)[C@H](CCCCN)NC(=O)[C@H](CC(C)C)NC(=O)[C@@H](NC(=O)[C@H](CCCCN)NC(=O)[C@H](CCCCN)NC(=O)[C@H](CC(C)C)NC(=O)[C@H](CC(C)C)NC(=O)[C@H](CCCCN)NC(=O)[C@H](CC(C)C)NC(=O)[C@@H](N)Cc1ccccc1)C(C)C)C(C)C)C(=O)N[C@@H](Cc1ccccc1)C(=O)N[C@@H](CCCCN)C(N)=O", "note": "[FLKLLKKVLKKVLPKIFK]", "values": [{"measurement": "MIC", "setting": "Escherichia coli AB94012", "result": 2.86, "unit": "µM"}, {"measurement": "MIC", "setting": "[1]", "result": 2.86, "unit": "µM"}, {"measurement": "MIC", "setting": "[2]", "result": 5.72, "unit": "µM"}, {"measurement": "MIC", "setting": "[3]", "result": 5.72, "unit": "µM"}, {"measurement": "MIC", "setting": "[4]", "result": 2.86, "unit": "µM"}]}, {"smiles": "CC(C)[C@H](NC(=O)[C@H](Cc1c[nH]c2ccccc12)NC(=O)[C@H](Cc1cnc[nH]1)NC(=O)[C@H](CCCN=C(N)N)NC(=O)[C@H](CCCN=C(N)N)NC(=O)[C@H](Cc1c[nH]c2ccccc12)NC(=O)[C@H](Cc1c[nH]c2ccccc12)NC(=O)[C@H](Cc1cnc[nH]1)NC(=O)[C@H](Cc1c[nH]c2ccccc12)NC(=O)[C@H](CCCN=C(N)N)NC(=O)[C@@H](N)CCCCN)C(=O)N[C@H](C(=O)N[C@@H](Cc1c[nH]c2ccccc12)C(N)=O)C(C)C", "note": "[KRWHWWRRHWVVW]", "values": [{"measurement": "MIC", "setting": "[5]", "result": 50, "unit": "µM"}, {"measurement": "MIC", "setting": "[6]", "result": "≥ 80", "unit": "µM"}, {"measurement": "MIC", "setting": "Bacillus subtilis 168", "result": 0.2, "unit": "µM"}, {"measurement": "MIC", "setting": "[7]", "result": 25, "unit": "µM"}, {"measurement": "MIC", "setting": "[8]", "result": "≥ 80", "unit": "µM"}, {"measurement": "MIC", "setting": "[9]", "result": "≥ 80", "unit": "µM"}, {"measurement": "MIC", "setting": "[10]", "result": 2.5, "unit": "µM"}, {"measurement": "MIC", "setting": "[11]", "result": 50, "unit": "µM"}, {"measurement": "MIC", "setting": "[12]", "result": "≥ 80", "unit": "µM"}, {"measurement": "MIC", "setting": "[13]", "result": "≥ 80", "unit": "µM"}]}, {"smiles": "CC[C@H](C)[C@H](NC(=O)CNC(=O)[C@@H](NC(=O)[C@@H](N)CC(C)C)[C@@H](C)CC)C(=O)N[C@H](C(=O)N[C@@H](CC(=O)O)C(=O)NCC(=O)N[C@H](C(=O)N[C@@H](CCCCN)C(=O)N[C@@H](CCC(=O)O)C(=O)N[C@@H](CCCN=C(N)N)C(=O)N[C@@H](CCCCN)C(=O)N[C@@H](CCCCN)C(=O)N[C@@H](CCCN=C(N)N)C(=O)N[C@@H](CCCN=C(N)N)C(=O)N[C@@H](CCCN=C(N)N)C(N)=O)C(C)C)[C@@H](C)CC", "note": "[LIGIIDGVKERKKRRR]", "values": [{"measurement": "MIC", "setting": "Escherichia coli 078", "result": "≥ 64", "unit": "µM"}, {"measurement": "MIC", "setting": "[1]", "result": "> 64", "unit": "µM"}, {"measurement": "MIC", "setting": "Escherichia coli UB1005", "result": "≥ 64", "unit": "µM"}, {"measurement": "MIC", "setting": "[14]", "result": "≥ 64", "unit": "µM"}, {"measurement": "MIC", "setting": "[2]", "result": "> 64", "unit": "µM"}, {"measurement": "MIC", "setting": "[15]", "result": "≥ 64", "unit": "µM"}, {"measurement": "MIC", "setting": "[16]", "result": "> 64", "unit": "µM"}, {"measurement": "MIC", "setting": "[17]", "result": "≥ 64", "unit": "µM"}, {"measurement": "MIC", "setting": "[18]", "result": "> 64", "unit": "µM"}, {"measurement": "MIC", "setting": "[19]", "result": "> 64", "unit": "µM"}, {"measurement": "MIC", "setting": "[20]", "result": "> 64", "unit": "µM"}, {"measurement": "MIC", "setting": "[21]", "result": "≥ 64", "unit": "µM"}, {"measurement": "MIC", "setting": "Streptococcus agalactiae", "result": "≥ 64", "unit": "µM"}, {"measurement": "MIC", "setting": "[22]", "result": "≥ 64", "unit": "µM"}]}, {"smiles": "CC[C@H](C)[C@H](NC(=O)[C@@H]1CCCN1C(=O)[C@@H]1CCCN1C(=O)[C@H](CCCN=C(N)N)NC(=O)[C@H](CCCN=C(N)N)NC(=O)[C@H](Cc1ccccc1)NC(=O)[C@@H]1CCCN1C(=O)[C@H](CC(C)C)NC(=O)[C@H](CCCN=C(N)N)NC(=O)[C@H](Cc1ccccc1)NC(=O)[C@@H](N)CCCN=C(N)N)C(=O)N[C@@H](CCCN=C(N)N)C(=O)N[C@H](C(=O)N1CCC[C@H]1C(=O)N1CCC[C@H]1C(=O)N1CCC[C@H]1C(=O)N[C@@H](Cc1ccccc1)C(=O)N[C@@H](Cc1ccc(O)cc1)C(=O)N1CCC[C@H]1C(=O)N1CCC[C@H]1C(=O)N[C@@H](Cc1ccccc1)C(=O)N[C@@H](CCCN=C(N)N)C(=O)N[C@@H](CCCN=C(N)N)C(=O)N[C@@H](Cc1ccccc1)C(=O)N[C@@H](CC(C)C)C(N)=O)[C@@H](C)CC", "note": "[RFRLPFRRPPIRIPPPFYPPFRRFL]", "values": [{"measurement": "MIC", "setting": "[23]", "result": 8, "unit": "µM"}, {"measurement": "MIC", "setting": "[24]", "result": 2, "unit": "µM"}, {"measurement": "MIC", "setting": "Escherichia coli ML-35p", "result": 4, "unit": "µM"}, {"measurement": "MIC", "setting": "[25]", "result": 2, "unit": "µM"}, {"measurement": "MIC", "setting": "[26]", "result": 11.3, "unit": "µM"}, {"measurement": "MIC", "setting": "[27]", "result": 4, "unit": "µM"}, {"measurement": "MIC", "setting": "[28]", "result": 16, "unit": "µM"}, {"measurement": "MIC", "setting": "[29]", "result": 0.5, "unit": "µM"}]}, {"smiles": "CC[C@H](C)[C@H](NC(=O)[C@H](CO)NC(=O)[C@@H](NC(=O)[C@H](CCCCN)NC(=O)[C@H](Cc1ccccc1)NC(=O)[C@@H]1CCCN1C(=O)[C@H](CCCCN)NC(=O)[C@H](CCCCN)NC(=O)[C@H](Cc1ccccc1)NC(=O)[C@@H](NC(=O)[C@H](CCCCN)NC(=O)[C@H](Cc1c[nH]c2ccccc12)NC(=O)[C@@H](N)CCCN=C(N)N)[C@@H](C)CC)[C@@H](C)CC)C(=O)N[C@@H](Cc1cnc[nH]1)C(=O)N[C@@H](CC(C)C)C(N)=O", "note": "[RWKIFKKPFKISIHL]", "values": [{"measurement": "MIC", "setting": "[30]", "result": 1, "unit": "µM"}, {"measurement": "MIC", "setting": "[31]", "result": 4, "unit": "µM"}, {"measurement": "MIC", "setting": "[32]", "result": 4, "unit": "µM"}, {"measurement": "MIC", "setting": "[33]", "result": 1, "unit": "µM"}, {"measurement": "MIC", "setting": "[34]", "result": 1, "unit": "µM"}, {"measurement": "MIC", "setting": "[35]", "result": 1, "unit": "µM"}, {"measurement": "MIC", "setting": "[36]", "result": 4, "unit": "µM"}]}]}
